# In ChEMBL document CHEMBL4033623, “Synthesis of xanthone derivatives and studies on the inhibition against cancer cells growth and synergistic combinations of them” (Eur J Med Chem, 2017):
# Calls of active or inactive are those of the source. No cut-off for these calls is given here.
# How the values were obtained:
# MDA-MB-231 [1] = experiment: Antiproliferative activity against human MDA-MB-231 cells after 48 hrs by CCK8 assay; type: functional, cell-based; settings: MDA-MB-231, 48 h
# MDA-MB-231 [2] = experiment: Decrease in MDM2 level in human MDA-MB-231 cells at 24 to 96 uM after 48 hrs by Western blot analysis; type: functional, cell-based
# HepG2 = experiment: Antiproliferative activity against human HepG2 cells after 48 hrs by CCK8 assay; type: functional, cell-based; settings: HepG2, 48 h
# MDA-MB-231 [3] = experiment: Induction of apoptosis in human MDA-MB-231 cells assessed as necrotic cells at 96 uM after 48 hrs by Annexin-V/FITC/PI staining based flow cytometry (reference value: 10.01 %); type: functional
# MDA-MB-231 [4] = experiment: Increase in p53 level in human MDA-MB-231 cells at 24 to 96 uM after 48 hrs by Western blot analysis; type: functional, cell-based
# MDA-MB-231 [5] = experiment: Induction of apoptosis in human MDA-MB-231 cells assessed as late apoptotic cells at 48 uM after 48 hrs by Annexin-V/FITC/PI staining based flow cytometry (reference value: 1.18 %); type: functional
# MDA-MB-231 [6] = experiment: Induction of apoptosis in human MDA-MB-231 cells assessed as early apoptotic cells at 48 uM after 48 hrs by Annexin-V/FITC/PI staining based flow cytometry (reference value: 0.03 %); type: functional
# MDA-MB-231 [7] = experiment: Induction of apoptosis in human MDA-MB-231 cells assessed as necrotic cells at 24 uM after 48 hrs by Annexin-V/FITC/PI staining based flow cytometry (reference value: 10.01 %); type: functional
# MCF7 = experiment: Antiproliferative activity against human MCF7 cells after 48 hrs by CCK8 assay; type: functional, cell-based; settings: MCF7, 48 h
# MDA-MB-231 [8] = experiment: Induction of apoptosis in human MDA-MB-231 cells assessed as late apoptotic cells at 24 uM after 48 hrs by Annexin-V/FITC/PI staining based flow cytometry (reference value: 1.18 %); type: functional
# MDA-MB-231 [9] = experiment: Induction of apoptosis in human MDA-MB-231 cells assessed as viable cells at 96 uM after 48 hrs by Annexin-V/FITC/PI staining based flow cytometry (reference value: 88.78 %); type: functional; settings: MDA-MB-231, 48 h, read-out: Activity
# MDA-MB-231 [10] = experiment: Induction of apoptosis in human MDA-MB-231 cells assessed as late apoptotic cells at 96 uM after 48 hrs by Annexin-V/FITC/PI staining based flow cytometry (reference value: 1.18 %); type: functional
# MDA-MB-231 [11] = experiment: Cell cycle arrest in human MDA-MB-231 cells assessed as increase in accumulation at G2/M phase at 48 uM after 48 hrs by propidium iodide staining based flow cytometric method relative to control; type: functional
# COLO 320 = experiment: Antiproliferative activity against human COLO320 cells after 48 hrs by CCK8 assay; type: functional, cell-based; settings: COLO 320, 48 h
# MDA-MB-231 [12] = experiment: Decrease in caspase-3 level in human MDA-MB-231 cells at 24 to 96 uM after 48 hrs by Western blot analysis; type: functional, cell-based
# MDA-MB-231 [13] = experiment: Decrease in caspase-9 level in human MDA-MB-231 cells at 24 to 96 uM after 48 hrs by Western blot analysis; type: functional, cell-based
# MDA-MB-231 [14] = experiment: Induction of apoptosis in human MDA-MB-231 cells assessed as necrotic cells at 48 uM after 48 hrs by Annexin-V/FITC/PI staining based flow cytometry (reference value: 10.01 %); type: functional
# MDA-MB-231 [15] = experiment: Induction of apoptosis in human MDA-MB-231 cells assessed as viable cells at 24 uM after 48 hrs by Annexin-V/FITC/PI staining based flow cytometry (reference value: 88.78 %); type: functional; settings: MDA-MB-231, 48 h, read-out: Activity
# MDA-MB-231 [16] = experiment: Induction of apoptosis in human MDA-MB-231 cells assessed as increase in cleaved PARP level at 24 to 96 uM after 48 hrs by Western blot analysis; type: functional, cell-based
# MDA-MB-231 [17] = experiment: Induction of apoptosis in human MDA-MB-231 cells assessed as early apoptotic cells at 96 uM after 48 hrs by Annexin-V/FITC/PI staining based flow cytometry (reference value: 0.03 %); type: functional
# K562 = experiment: Antiproliferative activity against human K562 cells after 48 hrs by CCK8 assay; type: functional, cell-based; settings: K562, 48 h
# MDA-MB-231 [18] = experiment: Induction of apoptosis in human MDA-MB-231 cells after 48 hrs by Annexin-V/FITC/PI staining based flow cytometry; type: functional, cell-based
# MDA-MB-231 [19] = experiment: Induction of apoptosis in human MDA-MB-231 cells assessed as increase in cleaved caspase-3 expression at 24 to 96 uM after 48 hrs by Western blot analysis; type: functional, cell-based
# MDA-MB-231 [20] = experiment: Induction of apoptosis in human MDA-MB-231 cells assessed as viable cells at 48 uM after 48 hrs by Annexin-V/FITC/PI staining based flow cytometry (reference value: 88.78 %); type: functional; settings: MDA-MB-231, 48 h, read-out: Activity
# MDA-MB-231 [21] = experiment: Induction of apoptosis in human MDA-MB-231 cells assessed as early apoptotic cells at 24 uM after 48 hrs by Annexin-V/FITC/PI staining based flow cytometry (reference value: 0.03 %); type: functional
smiles,measurement,setting,value
Cc1ccc2c(=O)c3cccc(CC(=O)O)c3oc2c1C [VADIMEZAN],IC50,MDA-MB-231 [1],48.4 µM
same,Activity,MDA-MB-231 [2],Active
same,IC50,HepG2,100 µM
same,Activity,MDA-MB-231 [3],21.83%
same,Activity,MDA-MB-231 [4],Active
same,Activity,MDA-MB-231 [5],17.03%
same,Activity,MDA-MB-231 [6],2.22%
same,Activity,MDA-MB-231 [7],12.09%
same,IC50,MCF7,54.4 µM
same,Activity,MDA-MB-231 [8],6.65%
same,viability at 96 µM,MDA-MB-231 [9],58.8%
same,Activity,MDA-MB-231 [10],14.93%
same,Activity,MDA-MB-231 [11],25%
same,IC50,COLO 320,39.5 µM
same,Activity,MDA-MB-231 [12],Active
same,Activity,MDA-MB-231 [13],Active
same,Activity,MDA-MB-231 [14],14.88%
same,viability at 24 µM,MDA-MB-231 [15],80.7%
same,Activity,MDA-MB-231 [16],Active
same,Activity,MDA-MB-231 [17],4.48%
same,IC50,K562,57.4 µM
same,Activity,MDA-MB-231 [18],Dose-dependent effect
same,Activity,MDA-MB-231 [19],Active
same,viability at 48 µM,MDA-MB-231 [20],65.9%
same,Activity,MDA-MB-231 [21],0.53%
